Experimental data as given in PubChem BioAssay (NCI).
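Tested at 5 concentrations; 48 h exposure; 96-well plates; endpoints linearly interpolated, else capped at highest concentration. TGI denotes the concentration required for complete inhibition of growth.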

How the values were obtained:
Experiment in all cases: DTP human tumour cell line panel, 48 h
MCF7 breast = system: MCF7 breast
SN12C renal = system: SN12C renal
LOX IMVI melanoma = system: LOX IMVI melanoma
IGROV1 ovarian = system: IGROV1 ovarian
HCT-15 colon = system: HCT-15 colon
M14 melanoma = system: M14 melanoma
A549 NSCLC = system: A549 NSCLC
HL-60(TB) leukemia = system: HL-60(TB) leukemia
MOLT-4 leukemia = system: MOLT-4 leukemia
SF-539 CNS = system: SF-539 CNS
UACC-257 melanoma = system: UACC-257 melanoma
SNB-19 CNS = system: SNB-19 CNS
NCI-H23 lung = system: NCI-H23 lung
KM12 colon = system: KM12 colon
BT-549 breast = system: BT-549 breast
SK-MEL-5 melanoma = system: SK-MEL-5 melanoma
CCRF-CEM leukemia = system: CCRF-CEM leukemia
NCI-H522 lung = system: NCI-H522 lung
ACHN renal = system: ACHN renal
OVCAR-8 ovarian = system: OVCAR-8 ovarian
SW-620 colon = system: SW-620 colon
CAKI-1 renal = system: CAKI-1 renal
786-0 renal = system: 786-0 renal
UACC-62 melanoma = system: UACC-62 melanoma
PC-3 prostate = system: PC-3 prostate
EKVX NSCLC = system: EKVX NSCLC
OVCAR-3 ovarian = system: OVCAR-3 ovarian
OVCAR-5 ovarian = system: OVCAR-5 ovarian
SF-268 CNS = system: SF-268 CNS
OVCAR-4 ovarian = system: OVCAR-4 ovarian
SNB-75 CNS = system: SNB-75 CNS
K-562 leukemia = system: K-562 leukemia
A498 renal = system: A498 renal
SF-295 CNS = system: SF-295 CNS
HT29 colon = system: HT29 colon
RXF 393 renal = system: RXF 393 renal
NCI/ADR-RES ovarian = system: NCI/ADR-RES ovarian
MDA-MB-231 breast = system: MDA-MB-231 breast
RPMI-8226 leukemia = system: RPMI-8226 leukemia
DU-145 prostate = system: DU-145 prostate
TK-10 renal = system: TK-10 renal
COLO 205 colon = system: COLO 205 colon
NCI-H460 lung = system: NCI-H460 lung
NCI-H226 lung = system: NCI-H226 lung
SK-MEL-28 melanoma = system: SK-MEL-28 melanoma
SK-OV-3 ovarian = system: SK-OV-3 ovarian
SK-MEL-2 melanoma = system: SK-MEL-2 melanoma
U251 CNS = system: U251 CNS
HCT-116 colon = system: HCT-116 colon
T-47D breast = system: T-47D breast
MDA-MB-435 = system: MDA-MB-435
MDA-N = system: MDA-N
HOP-62 NSCLC = system: HOP-62 NSCLC
HOP-92 NSCLC = system: HOP-92 NSCLC
HCC-2998 colon = system: HCC-2998 colon
SR leukemia = system: SR leukemia
MALME-3M melanoma = system: MALME-3M melanoma

Measured: TGI

CCOP(=O)(/C=C/n1ccc(=O)[nH]c1=O)OCC
not listed: HOP-92 NSCLC | HCC-2998 colon | SR leukemia | MALME-3M melanoma
> 100 µM: all other assays above

CC(=O)/C=C/CCC(=O)/C=C/C(=O)OC(CCC(=O)/C=C/C(=O)O)CC(C)=O (centres undefined)
not listed: LOX IMVI melanoma | CAKI-1 renal | SNB-75 CNS | A498 renal | SK-OV-3 ovarian | SK-MEL-2 melanoma
> 100 µM: all other assays above
